For 16 compounds, IC50 results are on record in patent US12570655B2, “Cysteine covalent modifiers of AKT1 and uses thereof” (Terremoto Biosciences, Inc., priority 2023, dated 2026).

SMILES strings stand for the structures. Where two headings read alike, the source gives them in different places.

Common to all, as to format: cell-based
One assay concerns the target T1, AKT2 (Homo sapiens, UniProt P31751).
T1 construct: expressed in transfected cells; host or cells: HEK293
In words: Live cell AKT2 target engagement by NanoBRET competitive probe displacement. The settings on record: HEK293 cells transfected with kinase-NanoLuciferase fusion, 2 h at 37° C. The method, boiled down:
(§1)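 IC50 fitted (Hill, log inhibitor vs response) to BRET signal, E600/E460 ratio, measured with extracellular NanoLuc inhibitor present. Intact transfected HEK293 cells bearing NanoLuc-tagged kinase were co-incubated 2 h, 37 °C, with compound dilution series and ~EC50 ATP-competitive fluorescent tracer.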
Background: Bioluminescence resonance energy transfer reports proximity on the nanometre scale.

The target in another assay is T2, AKT1 WT (Homo sapiens, UniProt P31749).
T2 construct: expressed in transfected cells; host or cells: HEK293
The assay can be described thus: Live cell AKT1 WT target engagement by NanoBRET competitive probe displacement. As to conditions: HEK293 cells transfected with kinase-NanoLuciferase fusion, 2 h at 37° C. The procedure, abridged:
as §1

The target of another assay is T3, AKT1 E17K (Homo sapiens, UniProt P31749, E17K).
T3 construct: expressed in transfected cells; host or cells: HEK293
The assay can be described thus: Live cell AKT1 E17K target engagement by NanoBRET competitive probe displacement. The settings on record: HEK293 cells transfected with kinase-NanoLuciferase fusion, 2 h at 37° C. The procedure, abridged: as §1

The test system of assay [1] is LAPC4 prostate cancer cells. In words: Antiproliferative effects in LAPC4 cells (CellTiter Glo). The settings on record: LAPC4 cells (AKT1 E17K allele), read-out: LAPC4 proliferation IC50. The procedure, abridged:
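Growth inhibition was measured by CellTiter Glo ATP luminescence after 72 h compound exposure of 1,000 seeded cells/well. The cells were AKT1 E17K-expressing LAPC4 prostate cancer cells maintained in IMDM plus 12% FBS. IC50 values came from Hill-equation fits.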
(In general: ATP-based viability assays read luminescence as a measure of living cells.)

T2 sequence (P31749 whole entry): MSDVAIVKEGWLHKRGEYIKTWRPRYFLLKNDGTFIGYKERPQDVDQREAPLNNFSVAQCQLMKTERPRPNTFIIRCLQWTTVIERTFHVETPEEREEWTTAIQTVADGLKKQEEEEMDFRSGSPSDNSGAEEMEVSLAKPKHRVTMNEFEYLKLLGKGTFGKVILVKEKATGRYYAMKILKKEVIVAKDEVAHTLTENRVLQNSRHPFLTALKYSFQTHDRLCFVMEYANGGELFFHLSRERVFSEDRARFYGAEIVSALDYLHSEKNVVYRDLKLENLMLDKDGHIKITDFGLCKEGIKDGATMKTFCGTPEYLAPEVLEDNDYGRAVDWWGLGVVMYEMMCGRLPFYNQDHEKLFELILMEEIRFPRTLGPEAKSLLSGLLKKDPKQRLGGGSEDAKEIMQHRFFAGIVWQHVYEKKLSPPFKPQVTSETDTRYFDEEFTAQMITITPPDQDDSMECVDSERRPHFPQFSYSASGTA
T1 sequence (P31751 whole entry): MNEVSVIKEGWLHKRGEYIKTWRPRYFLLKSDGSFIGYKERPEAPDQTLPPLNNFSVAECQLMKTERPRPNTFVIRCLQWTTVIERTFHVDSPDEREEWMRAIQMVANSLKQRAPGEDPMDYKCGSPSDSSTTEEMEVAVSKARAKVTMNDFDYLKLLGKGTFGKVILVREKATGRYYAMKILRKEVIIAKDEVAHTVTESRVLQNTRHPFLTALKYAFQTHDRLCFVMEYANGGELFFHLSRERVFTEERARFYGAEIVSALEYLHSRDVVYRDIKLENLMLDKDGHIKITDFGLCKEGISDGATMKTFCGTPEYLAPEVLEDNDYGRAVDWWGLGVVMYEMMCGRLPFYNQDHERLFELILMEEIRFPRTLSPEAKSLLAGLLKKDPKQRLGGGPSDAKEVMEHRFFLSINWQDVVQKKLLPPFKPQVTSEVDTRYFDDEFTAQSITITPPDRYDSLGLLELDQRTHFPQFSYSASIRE
T3 sequence (P31749 whole entry E17K): as the sequence (P31749 whole entry) above, with E17K counted along it

For `C=CC(=O)N1CCC(N[C@H]2CCc3cc(-n4c(-c5cccnc5N)nc5ccc(-n6cccn6)nc54)ccc32)C(C)C1` (single isomer, unassigned) [Example 102, 1-((3*,4*)-4-(((S)-5-(2-(2-aminopyridin-3-yl)-5-(1H-pyrazol-1-yl)-3H-imidazo[4,5-b]pyridin-3-yl)-2,3-dihydro-1H-inden-1-yl)amino)-3-methylpiperidin-1-yl)prop-2-en-1-one], the IC50 on AKT2 stood at 101 nM; on AKT1 WT it was 8.09 nM; at AKT1 E17K, 35.4 nM; in assay [1] (72 h) it was 147 nM.
Turning to `C=CC(=O)N1CCC(F)(CN[C@H]2CCc3cc(-n4c(-c5cccnc5N)nc5ccc(-n6cccn6)nc54)ccc32)CC1` [Example 184, (S)-1-(4-(((5-(2-(2-aminopyridin-3-yl)-5-(1H-pyrazol-1-yl)-3H-imidazo[4,5-b]pyridin-3-yl)-2,3-dihydro-1H-inden-1-yl)amino)methyl)-4-fluoropiperidin-1-yl)prop-2-en-1-one], the IC50 came out at 27.2 nM at AKT2; 104 nM on AKT1 WT; 17.8 nM on AKT1 E17K; 184 nM in assay [1] (Homo sapiens, LAPC4, 72 h).
The corresponding values for `C=CC(=O)N1CCC(N[C@@H]2c3ccc(-n4c(-c5cccnc5N)nc5ccc(-n6ccc(C#N)n6)nc54)cc3CC2F)CC1` (single isomer, unassigned) [Example 311, 1-(3-((1R,2*)-1-((1-acryloylpiperidin-4-yl)amino)-2-fluoro-2,3-dihydro-1H-inden-5-yl)-2-(2-aminopyridin-3-yl)-3H-imidazo[4,5-b]pyridin-5-yl)-1H-pyrazole-3-carbonitrile] are 246 nM, 1190 nM, 34.9 nM and 496 nM.
The corresponding values for `C=CC(=O)N1CC2CC1CCC2N[C@H]1CCc2cc(-n3c(-c4cccnc4N)nc4ccc(-n5cccn5)nc43)ccc21` (stereo partly drawn) [Example 294, 1-(2-(((S)-5-(2-(2-aminopyridin-3-yl)-5-(1H-pyrazol-1-yl)-3H-imidazo[4,5-b]pyridin-3-yl)-2,3-dihydro-1H-inden-1-yl)amino)-6-azabicyclo[3.2.1]octan-6-yl)prop-2-en-1-one] are 56.7 nM, 301 nM, 28.6 nM and 217 nM.
The corresponding values for `C=CC(=O)N1CCC(N[C@H]2CCc3cc(-n4c(-c5ccc(F)cc5)nc5ccc(-n6cccn6)nc54)ccc32)CC1` [Example 247, 1-(4-{[(1S)-5-[2-(4-fluorophenyl)-5-(pyrazol-1-yl)imidazo[4,5-b]pyridin-3-yl]-2,3-dihydro-1H-inden-1-yl]amino}piperidin-1-yl)prop-2-en-1-one] are 469 nM, 3120 nM, 113 nM and 1680 nM.
With `C=CC(=O)N1[C@H](C)CC(N[C@H]2CCc3cc(-n4c(-c5cccnc5N)nc5ccc(-n6cccn6)nc54)ccc32)C[C@@H]1C` (single isomer, unassigned) [Example 87, 1-((2S,4*,6R)-4-(((R)-5-(2-(2-aminopyridin-3-yl)-5-(1H-pyrazol-1-yl)-3H-imidazo[4,5-b]pyridin-3-yl)-2,3-dihydro-1H-inden-1-yl)amino)-2,6-dimethylpiperidin-1-yl)prop-2-en-1-one], the IC50 stood at 577 nM on AKT2, 25.5 nM on AKT1 WT, 165 nM on AKT1 E17K and 364 nM in assay [1] (72 h).
The like results for `C=CC(=O)N1CC2CC[C@H]1CC2N[C@H]1CCc2cc(-n3c(-c4cccnc4N)nc4ccc(-n5cccn5)nc43)ccc21` (single isomer, unassigned) [Example 134, 1-[(1S,4S,5*)-5-{[(1S)-5-[2-(2-aminopyridin-3-yl)-5-(pyrazol-1-yl)imidazo[4,5-b]pyridin-3-yl]-2,3-dihydro-1H-inden-1-yl]amino}-2-azabicyclo[2.2.2]octan-2-yl]prop-2-en-1-one] were, in that order, 2710 nM, 72.4 nM, 232 nM and 1150 nM.
Turning to `C=CC(=O)N1CCC(N[C@@H]2c3ccc(-n4c(-c5cccnc5N)nc5ccc(-n6ccc(F)n6)nc54)cc3CC2F)C[C@@H]1C` (single isomer, unassigned) [Example 271, 1-((2S,4*)-4-(((1R,2*)-5-(2-(2-aminopyridin-3-yl)-5-(3-fluoro-1H-pyrazol-1-yl)-3H-imidazo[4,5-b]pyridin-3-yl)-2-fluoro-2,3-dihydro-1H-inden-1-yl)amino)-2-methylpiperidin-1-yl)prop-2-en-1-one], the IC50 at AKT2 turned out to be 248 nM; at AKT1 WT, 928 nM; on AKT1 E17K it was 21.7 nM; in assay [1] (72 h), 674 nM.
The corresponding values for `C=CC(=O)N1C[C@H]2COC[C@@H](C1)C2N[C@H]1CCc2cc(-n3c(-c4cccnc4N)nc4ccc(-n5cccn5)nc43)ccc21` (single isomer, unassigned) [Example 72, 1-((1R,5S,9*)-9-(((S)-5-(2-(2-aminopyridin-3-yl)-5-(1H-pyrazol-1-yl)-3H-imidazo[4,5-b]pyridin-3-yl)-2,3-dihydro-1H-inden-1-yl)amino)-3-oxa-7-azabicyclo[3.3.1]nonan-7-yl)prop-2-en-1-one] are 289 nM, 15.8 nM, 75.2 nM and 493 nM.
The like results for `C#CC1CC(N[C@H]2CCc3cc(-n4c(-c5cccnc5N)nc5ccc(-n6cccn6)nc54)ccc32)CCN1C(=O)C=C` (single isomer, unassigned) [Example 112, 1-((2*,4*)-4-(((S)-5-(2-(2-aminopyridin-3-yl)-5-(1H-pyrazol-1-yl)-3H-imidazo[4,5-b]pyridin-3-yl)-2,3-dihydro-1H-inden-1-yl)amino)-2-ethynylpiperidin-1-yl)prop-2-en-1-one] were, in that order, 17.6 nM, 9.52 nM, 8.06 nM and 11.8 nM.
For the compound `CN(C)C/C=C/C(=O)Nc1ccccc1C(=O)N[C@H]1CCc2cc(-n3c(-c4cccnc4N)nc4ccc(-n5cccn5)nc43)ccc21` [Example 16, (S,E)-N-(5-(2-(2-aminopyridin-3-yl)-5-(1H-pyrazol-1-yl)-3H-imidazo[4,5-b]pyridin-3-yl)-2,3-dihydro-1H-inden-1-yl)-2-(4-(dimethylamino)but-2-enamido)benzamide], the IC50 stood at 67.8 nM on AKT2; 11.3 nM on AKT1 WT; 52.7 nM on AKT1 E17K; 183 nM in assay [1] (Homo sapiens, LAPC4, 72 h).
Turning to `C=CC(=O)N1CCC(N[C@@H]2c3ccc(-n4c(-c5cccnc5N)nc5ccc(-n6cccn6)nc54)cc3CC2F)C(C)C1` (single isomer, unassigned) [Example 290, 1-[(3*,4*)-4-{[(1R,2*)-5-[2-(2-aminopyridin-3-yl)-5-(pyrazol-1-yl)imidazo[4,5-b]pyridin-3-yl]-2-fluoro-2,3-dihydro-1H-inden-1-yl]amino}-3-methylpiperidin-1-yl]prop-2-en-1-one], the IC50 on AKT2 worked out at 122 nM; at AKT1 WT, 666 nM; at AKT1 E17K, 19.4 nM; in assay [1] (72 h), 455 nM.
The like results for `C=CC(=O)N1CCC(N[C@H]2CCc3cc(-n4c(-c5cccnc5N)nc5ccc(-n6cccn6)nc54)ccc32)C(OC)C1` (single isomer, unassigned) [Example 117, 1-((3*,4*)-4-(((S)-5-(2-(2-aminopyridin-3-yl)-5-(1H-pyrazol-1-yl)-3H-imidazo[4,5-b]pyridin-3-yl)-2,3-dihydro-1H-inden-1-yl)amino)-3-methoxypiperidin-1-yl)prop-2-en-1-one] were, in that order, 780 nM, 41.6 nM, 482 nM and 557 nM.
As to `C=CC(=O)N1CCC(N[C@H]2CCc3cc(-n4c(-c5cccnc5N)nc5ccc(C6CC(F)(F)C6)nc54)ccc32)CC1` [Example 227, 1-(4-{[(1S)-5-[2-(2-aminopyridin-3-yl)-5-(3,3-difluorocyclobutyl)imidazo[4,5-b]pyridin-3-yl]-2,3-dihydro-1H-inden-1-yl]amino}piperidin-1-yl)prop-2-en-1-one], the IC50 is 283 nM at AKT2; 703 nM on AKT1 WT; 39 nM on AKT1 E17K; 540 nM in assay [1] (Homo sapiens, LAPC4, 72 h).
`C=C(F)C(=O)Nc1ccccc1C(=O)N[C@H]1CCc2cc(-n3c(-c4cccnc4N)nc4ccc(-n5nccn5)nc43)ccc21` [Example 23, (S)-N-(5-(2-(2-aminopyridin-3-yl)-5-(2H-1,2,3-triazol-2-yl)-3H-imidazo[4,5-b]pyridin-3-yl)-2,3-dihydro-1H-inden-1-yl)-2-(2-fluoroacrylamido)benzamide]: the IC50 at AKT2 came to 2250 nM; at AKT1 WT, 50.1 nM; at AKT1 E17K, 135 nM; in assay [1] (Homo sapiens, LAPC4, 72 h), 426 nM.
The like results for `C=CC(=O)N1CCC(N(CC2COC2)[C@H]2CCc3cc(-n4c(-c5cccnc5N)nc5ccc(-n6cccn6)nc54)ccc32)CC1` [Example 161, 1-(4-{[(1S)-5-[2-(2-aminopyridin-3-yl)-5-(pyrazol-1-yl)imidazo[4,5-b]pyridin-3-yl]-2,3-dihydro-1H-inden-1-yl](oxetan-3-ylmethyl)amino}piperidin-1-yl)prop-2-en-1-one] were, in that order, 198 nM, 18.3 nM, 110 nM and 100 nM.
